# Molecular target: T1, full-length NS3/NS4A-2 (HCV NS3 protease) (Hepatitis C virus genotype 1a, UniProt P27958)
# T1 construct: Recombinant E. coli or Baculovirus full-length NS3 was diluted to 3.33 μM with assay buffer; made in house; host or cells: E. coli or baculovirus (BV) expression system
# Assay: NS3-NS4 protease assay / NS3 inhibition assay (RETS1 substrate, fluorescence kinetic read)
# Format: biochemical
# Details: not given
# Experimental: NS3 complex formation with NS4A-2.
# Recombinant E. coli or Baculovirus full-length NS3 was diluted to 3.33 μM with assay buffer and transferred material to an eppendorf tube and place in water bath in 4° C. refrigerator. The appropriate amount of NS4A-2 to 8.3 mM in assay buffer was added to equal the volume of NS3 in step 2.1.1 (conversion factor—3.8 mg/272 μL assay buffer). The material was transferred to an eppendorf tube and place in water bath in 4° C. refrigerator.
# After equilibration to 4° C., equal volumes of NS3 and NS4A-2 solutions were combined in an eppendorf tube, mix gently with a manual pipettor, and incubate mixture for 15 minutes in the 4° C. water bath. Final concentrations in the mixture are 1.67 μM NS3, 4.15 mM NS4A-2 (2485-fold molar excess NS4A-2).
# After 15 minutes at 4° C., the NS3/NS4A-2 eppendorf tube was removed and place it in a room temperature water bath for 10 minutes. NS3/NS4A-2 was alliquoted at appropriate volumes and store at −80° C. (E. coli NS3 run at 2 nM in assay, aliquot at 25 μL. BV NS3 run at 3 nM in assay, aliquot at 30 μL).
# Sample compounds were dissolved to 10 mM in DMSO then diluted to 2.5 mM (1:4) in DMSO. Typically, compounds were added to an assay plate at 2.5 mM concentration, yielding upon dilution a starting concentration of 50 microM in the assay inhibition curve. Compounds were serial diluted in assay buffer to provide test solutions at lower concentrations.
# The E. coli. NS3/NS4A-2 was diluted to 4 nM NS3 (1:417.5 of 1.67 μM stock−18 μL 1.67 μM stock+7497 μL assay buffer). The BV NS3/NS4A-2 was diluted to 6 nM NS3 (1:278.3 of 1.67 μM stock−24 μL 1.67 μM stock+6655 μL assay buffer). Using the manual multichannel pipettor, careful not to introduce bubbles into the plate, add 50 μL assay buffer to wells A01-H01 of a black Costar 96-well polypropylene storage plate.
# Using the manual multichannel pipettor, careful not to introduce bubbles into the plate, add 50 μL of diluted NS3/NS4A-2 from step 2.2.6 to wells A02-H12 of plate in step 2.2.7. Using the manual multichannel pipettor, careful not to introduce bubbles into the plate, transfer 25 μL of the wells in drug dilution plate in step 2.2.5 to corresponding wells in assay plate in step 2.2.8. Change tips on multichannel pipettor for each row of compounds transferred. Using the manual multichannel pipettor, careful not to introduce bubbles into the plate, mix the wells from the assay plate in step 2.2.9 by aspirating and dispensing 35 μL of the 75 μL in each well five times. Change tips on multichannel pipettor for each row of wells mixed. Cover plate with a polystyrene plate lid and pre-incubate the plate from step 2.2.10 containing NS3 protease and sample compounds 10 minutes at room temperature. While plate from step 2.2.11 is pre-incubating, dilute RETS1 substrate in a 15 mL polypropylene centrifuge tube. Dilute RETS1 substrate to 8 μM (1:80.75 of 646 μM stock−65 μL 646 μM stock+5184 μL assay buffer).
# After the plate in step is done pre-incubating, and using the manual multichannel, add 25 μL of substrate to all wells on the plate. Quickly mix the plate as in step 2.2.10, mixing 65 μL of the 100 μL in the wells.
# Read the plate in kinetic mode on the Molecular Devices SpectraMax Gemini XS plate reader. Reader settings: Read time: 30 minutes, Interval: 36 seconds, Reads: 51, Excitation λ: 335 nm, Emission λ: 495 nm, cutoff: 475 nm, Automix: off, Calibrate: once, PMT: high, Reads/well: 6, Vmax pts: 21 or 28/51 depending on length of linearity of reaction
# IC50 s are determined using a four parameter curve fit equation, and converted to Ki's using the following Km's: • Full-length E. coli NS3—2.03 μM • Full-length BV NS3—1.74 μM where Ki=IC50/(1+[S]/Km)) • Quantitation by ELISA of the selectable marker protein, Neomycin phosphotransferase II (NPTII) in the HCV Sub-Genomic Replicon, GS4.3
# T1 sequence (P27958 1027-1657): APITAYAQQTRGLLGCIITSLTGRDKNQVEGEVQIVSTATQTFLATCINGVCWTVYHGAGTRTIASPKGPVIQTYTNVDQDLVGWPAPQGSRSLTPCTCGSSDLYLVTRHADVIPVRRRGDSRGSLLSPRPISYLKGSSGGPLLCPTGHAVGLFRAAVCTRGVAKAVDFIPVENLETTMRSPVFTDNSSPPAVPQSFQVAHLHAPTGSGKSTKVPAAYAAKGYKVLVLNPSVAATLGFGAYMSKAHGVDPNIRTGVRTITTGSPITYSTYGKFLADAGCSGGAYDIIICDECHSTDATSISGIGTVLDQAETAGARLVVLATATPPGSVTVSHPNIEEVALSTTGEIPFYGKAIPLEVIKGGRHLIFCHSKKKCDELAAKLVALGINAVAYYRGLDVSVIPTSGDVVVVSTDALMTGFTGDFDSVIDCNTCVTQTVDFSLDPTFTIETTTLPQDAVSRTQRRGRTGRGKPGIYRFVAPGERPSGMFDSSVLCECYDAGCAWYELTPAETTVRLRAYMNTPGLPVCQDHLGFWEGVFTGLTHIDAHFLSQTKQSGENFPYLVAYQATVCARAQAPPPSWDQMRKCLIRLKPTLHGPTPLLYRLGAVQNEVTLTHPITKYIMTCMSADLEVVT
row,Structure (SMILES),IC50 [µM]
1,CC(C)(C)OC(=O)N[C@H]1CCC(O)CC/C=C\[C@@H]2C[C@@]2(C(=O)NS(=O)(=O)C2CC2)NC(=O)[C@@H]2C[C@@H](OC(=O)N3Cc4cccc(F)c4C3)CN2C1=O (some centres unmarked) [Compound 1018],< 0.1
2,CC(C)(C)OC(=O)N[C@H]1COCCC/C=C\[C@@H]2C[C@@]2(C(=O)NS(=O)(=O)C2CC2)NC(=O)[C@@H]2C[C@@H](OC(=O)N3Cc4cccc(Cl)c4C3)CN2C1=O [Compound 1025],< 0.1

# Same assay, conditions: recombinant E. coli or Baculovirus full-length NS3 with NS4A-2; read-out: NS3-NS4 IC50
row,Structure (SMILES),IC50 [µM]
1,CN(C)CCNC(=O)[C@@]12C[C@H]1/C=C\CCCCC[C@H](NC(=O)OC(C)(C)C)C(=O)N1C[C@H](OC(=O)N3Cc4cccc(F)c4C3)C[C@H]1C(=O)N2 [Compound 608],> 10
2,CCCNC(=O)[C@@]12C[C@H]1/C=C\CCCCC[C@H](NC1CCC1)C(=O)N1C[C@H](OC(=O)N3Cc4cccc(F)c4C3)C[C@H]1C(=O)N2 [Compound 623],< 10
3,CCOC(=O)[C@@]12C[C@H]1/C=C\CCCCC[C@H](Nc1c(N3CCC3)c(=O)c1=O)C(=O)N1C[C@H](OC(=O)N3Cc4cccc(F)c4C3)C[C@H]1C(=O)N2 [Compound 645],< 0.1
4,CNC(=O)NC(=O)[C@@]12C[C@H]1/C=C\CCCCC[C@H](NC(=O)OC(C)(C)C)C(=O)N1C[C@H](OC(=O)N3Cc4ccccc4C3)C[C@H]1C(=O)N2 [Compound 703],< 1
5,CC(C)(C)OC(=O)N[C@H]1CCCCC/C=C\[C@@H]2C[C@@]2(C(=O)NC(=O)Nc2ccccc2)NC(=O)[C@@H]2C[C@@H](OC(=O)N3Cc4ccccc4C3)CN2C1=O [Compound 704],< 10
6,CC(C)(C)OC(=O)N[C@H]1CCCCC/C=C\[C@@H]2C[C@@]2(C(=O)NS(=O)(=O)OCCc2ccccc2)NC(=O)[C@@H]2CCCN2C1=O [Compound 801],< 10
7,O=C(N[C@H]1CCC(F)(F)CC/C=C\[C@@H]2C[C@@]2(C(=O)NS(=O)(=O)C2CC2)NC(=O)[C@@H]2C[C@@H](OC(=O)N3Cc4cccc(F)c4C3)CN2C1=O)OC1CCCC1 [Compound 1005],< 0.1
8,"CC(C)(C)OC(=O)N[C@H]1CCN(S(=O)(=O)c2ccccc2[N+](=O)[O-])CC/C=C\[C@@H]2C[C@@]2(C(=O)NS(=O)(=O)C2CC2)NC(=O)[C@@H]2C[C@@H](OC(=O)N3Cc4cccc(F)c4C3)CN2C1=O [Compound 1030, (2R,6S,13aS,14aR,16aS,Z)-6-(tert-butoxycarbonylamino)-14a-(cyclopropylsulfonylcarbamoyl)-9-(2-nitrophenylsulfonyl)-5,16-dioxo-1,2,3,5,6,7,8,9,10,11,13a,14,14a,15,16,16a-hexadecahydrocyclopropa(n)pyrrolo[2,1-c][1,4,9]triazacyclopentadecine-2-yl 4-fluoroisoindoline-2-carboxylate]",< 0.1
9,"CC(C)(C)OC(=O)N[C@H]1CCCCC/C=C\[C@@H]2C[C@@]2(C(=O)O)NC(=O)C2Cc3ccccc3CN2C1=O (stereo partly drawn) [Compound 2001, (1aS,9S,19aR,Z)-9-(tert-Butoxycarbonyl)-10,18-dioxo-1a,4,5,6,7,8,9,10,12,17,17a,18,19,19a-tetradecahydro-1H-11,14-diaza-bicyclo[13.1.0]hexadeca-1(15), 2-dieno[11,12-b]isoquinoline-19a-carboxylic acid]",> 10
10,"O=C(N[C@H]1CCCCC/C=C\[C@@H]2C[C@@]2(C(=O)O)NC(=O)C2Cc3cc(Oc4cccc(Cl)c4)ccc3CN2C1=O)OC1CCCC1 (some centres unmarked) [Compound 2002, (Z)-15-(3-chlorophenoxy)-9-(cyclopentyloxycarbonyl)-10,18-dioxo-1a,4,5,6,7,8,9,10,12,17,17a,18,19,19a-tetradecahydro-1H-11,14-diaza-bicyclo[13.1.0]hexadeca-1(16), 2-dieno[11,12-b]isoquinoline-19a-carboxylic acid]",< 10
11,"CS(=O)(=O)NC(=O)[C@@]12C[C@H]1/C=C\CCCCC[C@H](NC(=O)OC1CCCC1)C(=O)N1Cc3ccc(Oc4cccc(Cl)c4)cc3CC1C(=O)N2 (stereo partly drawn) [Compound 2003, Cyclopentyl (1aS,9S,19aR,Z)-15-(3-chlorophenoxy)-19a-(methylsulfonylcarbamoyl)-10,18-dioxo-1a,4,5,6,7,8,9,10,12,17,17a,18,19,19a-tetradecahydro-1H-11,14-diaza-bicyclo[13.1.0]hexadeca-1(15), 2-dieno[11,12-b]isoquinolin-9-ylcarbamate]",< 10
12,"O=C(N[C@H]1CCCCC/C=C\[C@@H]2C[C@@]2(C(=O)NS(=O)(=O)c2ccccc2)NC(=O)C2Cc3cc(Oc4cccc(Cl)c4)ccc3CN2C1=O)OC1CCCC1 (stereo partly drawn) [Compound 2004, Cyclopentyl (1aS,9S,19aR,Z)-15-(3-chlorophenoxy)-10,18-dioxo-19a-(phenylsulfonylcarbamoyl)-1a,4,5,6,7,8,9,10,12,17,17a,18,19,19a-tetradecahydro-1H-11,14-diaza-bicyclo[13.1.0]hexadeca-1(15), 2-dieno[11,12-b]isoquinolin-9-ylcarbamate]",< 1
13,"CC(C)(C)OC(=O)N[C@H]1CCCCC/C=C\[C@@H]2C[C@@]2(C(=O)NS(=O)(=O)C2CC2)NC(=O)C2Cc3ccccc3CN2C1=O (stereo partly drawn) [Compound 2009, tert-Butyl (1aS,9S,19aR,Z)-19a-(cyclopropylsulfonylcarbamoyl)-10,18-dioxo-1a,4,5,6,7,8,9,10,12,17,17a,18,19,19a-tetradecahydro-1H-11,14-diaza-bicyclo[13.1.0]hexadeca-1(15),2-dieno[11,12-b]isoquinolin-9-ylcarbamate]",< 10
14,"O=C(N[C@H]1CCCCCCC[C@@H]2C[C@@]2(C(=O)NS(=O)(=O)c2ccccc2)NC(=O)C2Cc3cc(Oc4cccc(Cl)c4)ccc3CN2C1=O)OC1CCCC1 (stereo partly drawn) [Compound 2010, Cyclopentyl (1aR,9S,19aR)-15-(3-chlorophenoxy)-10,18-dioxo-19a-(phenylsulfonylcarbamoyl)-1a,2,3,4,5,6,7,8,9,10,12,17,17a,18,19,19a-hexadecahydro-1H-2,5-diaza-bicyclo[13.1.0]hexadec-1(15)-eno[5,4-b]isoquinolin-9-ylcarbamate]",< 10
15,"CC(C)(C)OC(=O)N[C@H]1CCCCCCC[C@@H]2C[C@@]2(C(=O)O)NC(=O)C2Cc3ccccc3CN2C1=O (stereo partly drawn) [Compound 2011, (1aR,9S,19aR)-9-(tert-butoxycarbonyl)-10,18-dioxo-1a,2,3,4,5,6,7,8,9,10,12,17,17a,18,19,19a-hexadecahydro-1H-2,5-diaza-bicyclo[13.1.0]hexadec-1(15)-eno[5,4-b]isoquinoline-19a-carboxylic acid]",> 10
16,CC(C)(C)OC(=O)NC1CCCCCCCC=CC2CC2(C(=O)NS(=O)(=O)c2ccccc2)NC(=O)C2CCCN2C1=O (centres unmarked) [Compound 2101],< 10
17,CC(C)(C)OC(=O)NC1CCCCCCCC=CC2CC2(C(=O)NS(=O)(=O)c2ccc([N+](=O)[O-])cc2)NC(=O)C2CCCN2C1=O (centres unmarked) [Compound 2102],< 10
18,CCCS(=O)(=O)NC(=O)C12CC1C=CCCCCCCCC(NC(=O)OC(C)(C)C)C(=O)N1CCCC1C(=O)N2 (centres unmarked) [Compound 2105],< 1
19,CC(C)(C)OC(=O)NC1CCCCCCCC=CC2CC2(C(=O)NS(=O)(=O)C(F)(F)F)NC(=O)C2CCCN2C1=O (centres unmarked) [Compound 2107],< 1
20,CC(C)(C)OC(=O)NC1CCCCCCCC=CC2CC2(C(=O)NS(=O)(=O)c2cc(Cl)cc(Cl)c2)NC(=O)C2CCCN2C1=O (centres unmarked) [Compound 2108],< 10
21,CC(C)(C)OC(=O)N[C@H]1CCCCC/C=C\[C@@H]2C[C@@]2(C(=O)NS(=O)(=O)c2cccc(Cl)c2)NC(=O)[C@@H]2CCCN2C1=O [Compound 2110],< 10

# Source: US7829665B2 (priority 2005, dated 2010)
